Source: patent publication US20220323443A1, “COMBINATION THERAPY FOR CANCER TREATMENT” (TAKEDA PHARMACEUTICAL COMPANY LIMITED, priority 2019, published 2022)

Key:
Experiment in all cases: In vitro combination study with Compound 1, Cell Titer-Glo (ATP) cell viability, 72 h;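 on Call, anti-proliferative effect of combination with Compound 1, A549: Ten-by-ten dose matrices of the two agents in duplicate, compounds added 16 h post-plating, activity relative to DMSO vehicle wells, call reflects synergy evaluation from luminescence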;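 on Call, anti-proliferative effect of combination with Compound 1, COLO205: Ten-by-ten dose matrices of both agents in duplicate plus single-agent dilutions, luminescent ATP read-out, percent activity per well relative to DMSO vehicle wells, synergy call from these matrices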;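 on Call, anti-proliferative effect of combination with Compound 1, H460: Ten-by-ten dose matrices of both drugs alongside single-agent dilutions, luminescence read 72 hours after compound addition, percent activity per well versus vehicle (DMSO) plate controls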;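 on Call, anti-proliferative effect of combination with Compound 1, HCT116: combination call from 10×10 dose matrices in duplicate, graded by synergy, with percent activity per well relative to DMSO vehicle controls on the same plate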;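 on Call, anti-proliferative effect of combination with Compound 1, SW620: Ten-by-ten dose matrices of both drugs in 384-well plates, luminescent ATP read-out, synergy evaluated against single-agent and DMSO vehicle controls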
Settings in all cases: 72 h
H460 cancer cells = type: cell-based
SW620 cancer cells = type: cell-based
Method: (§1) Each combination pair was evaluated in an individual 384-well plate which contained variable doses of both compounds as single agents, as well as two, ten-by-ten matrices (in duplicate) that contained mixtures of the two test compounds. In brief, compounds were added to the cell test plates 16 hours after cell plating and then assessed for viability 72 hours later. Continuous cultures of tumor cells were maintained under standard cell culturing conditions (i.e. in a humidified chamber set at 37° C., containing atmosphere 5% carbon dioxide). […] Seventy-two hours after compound addition, ATP levels were measured to assess cell viability. Plating densities were chosen to ensure optimal linear growth over the 72 hour period.
(§2) Compound dilution and compound delivery to the assay plates were done on HighRes Robotic System (HighRes Biosolutions, Woburn, Mass., USA) with Echo™ Liquid Handler (Labcyte, Sunnyvale, Calif., USA). […] Next, these were used for compound transfer into cell assay plates. All wells were back-filled to give a constant percentage of DMSO.
(§3) The final DMSO concentration was held constant in all wells across the plate and was maintained at less than 0.5%. […] Cells treated with vehicle (DMSO) in two rows, or single compound serial dilutions in one plate columns/row served as the untreated control and single compound controls, respectively.
(§4) Compound activity in A549, COLO205, H460, HCT116, SW48, SW620 cancer cell lines was assessed using Cell Titer-Glo® (Promega [Madison, Wis., USA]). After 72 hours incubation, the plates were treated as per package insert protocol for the Promega Luminescence ATP Detection Systems. Briefly, 25 μL of cell lysis/substrate solution (provided in kit form) was added to each well and the plate was incubated at room temperature for 10 minutes. Luminescence was measured using a PHERAstar multi-label counter (BMG Labtech [Ortenberg, Germany]) or LEADseeker (GE Healthcare Life Sciences [Piscataway, N.J., USA]).
(§5) Numerical luminescence values were analyzed to generate EC50 curves and evaluate synergy. Raw Data reader files were uploaded along with automation workfiles that defined the plate and well contents. Percent activities were calculated for each well versus plate controls.
(§6) Each plate representing a single drug combination was analyzed separately. First, the viability measurements were normalized by scaling the data so that the median of the negative controls was 0 and the median of the positive controls was 100.
(§7) For the combination analysis, a response surface model was used to describe the relationship between the normalized viability and the drug concentrations. The data were fit to the model by minimizing the residual sum of squares. Based on the fitted response surface, plots of constant viability, called isobolograms, were produced.
(§8) The Combination Index and Nonlinear Blending were used as measures of drug synergy. To calculate Combination Index the 50% isobologram (which is the dose contour that has 50% viability) was used. […] A standard procedure was created to produce a call in order to characterize the viability effects for each combination (synergy, additivity, subadditivity, or antagonism). If the Combination Index existed then these measures were used to make the call.

COLO205 cancer cells = type: cell-based, human
A549 cancer cells = type: cell-based
HCT116 cancer cells = type: cell-based
Method: as §1, §2, §3, §4, §5, §6, §7, §8

[1] = DNA damaging agent combined with Compound 1
[2] = Table 5 drug combined with Compound 1

Molecule	Call, anti-proliferative effect of combination with Compound 1, COLO205 (COLO205 cancer cells; [1])	Call, anti-proliferative effect of combination with Compound 1, H460 (H460 cancer cells; [2])	Call, anti-proliferative effect of combination with Compound 1, SW620 (SW620 cancer cells; [2])	Call, anti-proliferative effect of combination with Compound 1, COLO205 (COLO205 cancer cells; [2])	Call, anti-proliferative effect of combination with Compound 1, A549 (A549 cancer cells; [2])	Call, anti-proliferative effect of combination with Compound 1, HCT116 (HCT116 cancer cells; [2])	also measured
Nc1ccn([C@@H]2O[C@H](CO)[C@@H](O)[C@@H]2O)c(=O)n1 [Cytarabine]	Synergy (0 to 0.7)	–	–	–	–	–	Call, anti-proliferative effect of combination with Compound 1, H460 (H460 cancer cells; [1]): Additivity (0.7 to 1.3); Call, anti-proliferative effect of combination with Compound 1, SW620 (SW620 cancer cells; [1]): Synergy (0 to 0.7); Call, anti-proliferative effect of combination with Compound 1, A549 (A549 cancer cells; [1]): Additivity (0.7 to 1.3); Call, anti-proliferative effect of combination with Compound 1, HCT116 (HCT116 cancer cells; [1]): Additivity (0.7 to 1.3)
Cc1[nH]c2ccccc2c1CCNCc1ccc(/C=C/C(=O)NO)cc1 [Panobinostat]	–	Additivity (0.7 to 1.3)	Additivity (0.7 to 1.3)	Subadditivity (1.3 to 2)	Additivity (0.7 to 1.3)	Additivity (0.7 to 1.3)	–
Tunicamycin	–	Additivity (0.7 to 1.3)	Additivity (0.7 to 1.3)	Additivity (0.7 to 1.3)	–	Synergy (0 to 0.7)	–
CO[C@@H]1[C@H](N(C)C(=O)c2ccccc2)C[C@H]2O[C@]1(C)n1c3ccccc3c3c4c(c5c6ccccc6n2c5c31)C(=O)NC4 [PKC412]	–	Antagonism (>2)	Additivity (0.7 to 1.3)	Subadditivity (1.3 to 2)	–	_Additivity	–
CN1CC[C@H](c2c(O)cc(O)c3c(=O)cc(-c4ccccc4Cl)oc23)[C@H](O)C1 [Alvocidib]	–	–	Subadditivity (1.3 to 2)	Additivity (0.7 to 1.3)	Additivity (0.7 to 1.3)	Additivity (0.7 to 1.3)	–
Nc1cc(C(F)(F)F)c(-c2cc(N3CCOCC3)nc(N3CCOCC3)n2)cn1 [BKM-120]	–	Additivity (0.7 to 1.3)	Additivity (0.7 to 1.3)	Additivity (0.7 to 1.3)	Additivity (0.7 to 1.3)	Additivity (0.7 to 1.3)	–
CN(C)/N=N/c1[nH]cnc1C(N)=O [Dacarbazine]	–	–	–	–	–	–	Call, anti-proliferative effect of combination with Compound 1, HCT116 (HCT116 cancer cells; [1]): Additivity (0.7 to 1.3)
CS(=O)(=O)OCCCCOS(C)(=O)=O [Busulfan]	Synergy (0 to 0.7)	–	–	–	–	–	–
S=c1nc[nH]c2nc[nH]c12 [Mercaptopurine]	Additivity (0.7 to 1.3)	–	–	–	–	–	Call, anti-proliferative effect of combination with Compound 1, H460 (H460 cancer cells; [1]): Additivity (0.7 to 1.3); Call, anti-proliferative effect of combination with Compound 1, SW620 (SW620 cancer cells; [1]): Subadditivity (1.3 to 2); Call, anti-proliferative effect of combination with Compound 1, HCT116 (HCT116 cancer cells; [1]): Additivity (0.7 to 1.3)
CCCS(=O)(=O)Nc1ccc(F)c(C(=O)c2c[nH]c3ncc(-c4ccc(Cl)cc4)cc23)c1F [PLX4032]	–	Additivity (0.7 to 1.3)	–	Additivity (0.7 to 1.3)	Additivity (0.7 to 1.3)	Additivity (0.7 to 1.3)	–
CCNC(=O)c1noc(-c2cc(C(C)C)c(O)cc2O)c1-c1ccc(CN2CCOCC2)cc1 [AUY-922]	–	–	Additivity (0.7 to 1.3)	Additivity (0.7 to 1.3)	Additivity (0.7 to 1.3)	Additivity (0.7 to 1.3)	–
Nc1nc(OCc2ccccc2)c2nc[nH]c2n1 [O6-Benzylguanine]	Additivity (0.7 to 1.3)	–	–	–	–	–	–
CN1CC[C@H](c2c(O)cc(O)c3c(=O)cc(-c4ccccc4Cl)oc23)[C@H](O)C1 [Flavopiridol]	–	Additivity (0.7 to 1.3)	–	–	–	–	–
